Earlier results on 4 compounds are cited in patent publication US20100278946A1, “HERBAL COMPOSITIONS COMPRISING PLANT MATERIAL OF ARTEMISIA HERBA-ALBA (ASSO) ASTERACEAE AND/OR EXTRACTS THEREOF” (priority 2007, published 2010).

As a reminder, the mortality is the percentage killed.

Data set [1] relates to noncompetitive blocker site of the GABA gated chloride channel.
Data set [2] has as its system gamma-aminobutyric acid (GABA) type A receptor. The settings on record: rat dorsal root ganglion neurons.
Where [3] appears, read: 2.5 min after administration of alpha-thujone.
[4] abbreviates: 30 min after administration of alpha-thujone, 40-60 mg/kg.

Read-outs that look alike come from different tables or passages of the source.

As to `CC1C(=O)CC2(C(C)(C)O)CC12` (stereo not drawn) [7-hydroxy-alpha-thujone], the “level in the brain” value under setting [3] is 29 ppm and the “level in the brain” value under setting [4] is on record as 1.5-8.4 ppm.
For the compound `CC1C(=O)CC2(C(C)C)CC12` (stereo not drawn) [Beta-thujone, beta-thujone], in the data set on mice (mice (Rice and Wilson, 1976) and Drosophila), the “toxicity compared with alpha-thujone” value is listed as “less toxic”. The “potency relative to alpha-thujone (fold less potent)” value in data set [1] ([3H]EBOB assay) is recorded as 2.3 fold.
For `CC(C)[C@]12CC(=O)[C@H](C)[C@H]1C2` [alpha-thujone], the “time to death after tonic convulsion” value in the data set with mice (mice at the higher dose (60 mg/kg)) is reported as not above 1 min. In addition, the mortality result with mice (mice, dose of 30 mg/kg) is reported as “no death”; in the data set with mice (mice, dose of 60 mg/kg), 100%. In the data set on mice (mice, i.p.), the “i.p. LD50” value is reported as “about 45 mg/kg”. Moreover, the “effect on GABA-induced peak currents” value in data set [2] is “suppressed”. Further, the “level in the brain” value is listed as 11 ppm under setting [3] and 0.3-1.0 ppm under setting [4]. In addition, the “mode of inhibition of EBOB binding” value in data set [1] is on record as “competitive inhibitor”. In data set [1] ([3H]EBOB binding assay), the “potency compared with 7-hydroxy-alpha-thujone (fold more potent)” value was 56 fold.
In the case of `CN1C(=O)CN=C(c2ccccc2)c2cc(Cl)ccc21` [diazepam], the “survival of mice given an otherwise lethal dose of alpha-thujone” value in the data set with mice (intraperitoneal administration 15 min before alpha-thujone at 100 mg/kg) is listed as “almost all of the mice surviving”.
